This note sets out measurements from publication PMC7756445, “A Novel Prodrug of a nNOS Inhibitor with Improved Pharmacokinetic Potential” (Chemmedchem, 2020).

Where two headings read alike, the source gives them in different places.

One series concerns the target T1, mARC1 (Homo sapiens, UniProt Q5VT66).
T1 sequence (Q5VT66 41-337 limits assumed): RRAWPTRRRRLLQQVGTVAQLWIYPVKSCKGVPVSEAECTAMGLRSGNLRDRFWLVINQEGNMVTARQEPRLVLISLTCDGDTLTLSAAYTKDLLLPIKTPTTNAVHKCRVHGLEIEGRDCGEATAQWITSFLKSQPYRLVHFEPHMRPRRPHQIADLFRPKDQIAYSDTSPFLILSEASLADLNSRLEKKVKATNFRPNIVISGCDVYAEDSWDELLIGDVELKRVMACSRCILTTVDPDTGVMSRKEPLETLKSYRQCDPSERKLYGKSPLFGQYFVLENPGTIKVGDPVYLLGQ
In words: Bioconversion with the mARC enzyme system (UV/Vis NADH assay, LC-MS). The conditions noted are these: for conversion to reduced amidine 1 (LC-MS): mARC1 incubation. The series is classed as in vitro ADME. The procedure: (§1) The turnover rate of the amidoxime 2 was tested by an enzymatic NADH assay ^[38] with the mARC enzyme system in comparison to the model substrate benzamidoxime (BAO).
(§2) Due to this known in vivo studies and to other known prodrugs which are activated by mARC, for example, upamostat and ximelagatran, ^[38] it can be expected that the amidoxime prodrug 2 will also be converted extensively in vivo, and is thus a very suitable prodrug for the amidine 1 and making it orally available.
(§3) The assay was performed as previously described. ^[38] The proteins were dissolved in 20 mM of 2‐(N‐morpholino)ethanesulfonic acid (MES) buffer (pH 6.0) in disposable micro UV cuvettes. Each batch contained 15 μg human mARC, 7 μg B5 and 0.16 μg B5R. The enzymes were preincubated with the respective substrate (concentration 3 mM) for 3 min at 37 °C (total volume 240 μL). This mixture was measured as blank value and immediately mixed with 60 μL NADH (concentration 1 mM). The kinetics were measured over a period of 15 min at 37 °C, with absorption between 300 and 400 nm being measured at intervals of 30 sec. The measurement was stopped when the absorption stopped changing. The measurements were taken with a Varian Cary® 50 UV/Vis spectrophotometer from Agilent, which was tempered with a Varian Cary® PCB‐150 Peltier Controlled Cryobath. The samples were mixed with cold methanol and centrifuged for 5 min at 10 000 rpm, Swing‐out Rotor, and stored at −80 °C for further analysis.
(§4) A Bruker Amazon SL Ion Trap with upstream Agilent 1260 HPLC system was used with a Waters Xterra MS C8, 4.6×50 mm, 3.5 μm column, with Phenomenex, Security Guard C18 precolumn 3×4 mm. A gradient was employed with eluent A: 0.1 % acetic acid Suprapur, Merck, in Aqua Bidest, eluent B: CH3CN, Sigma Aldrich Chromasolv for gradient HPLC. The gradient was changed from 97 % A to 100 % B within 10 min. The injection volume was 1 μL and 10 μL respectively. The column temperature was 20 °C. Software of the HPLC: Hystar 3.2 SR 2. Software to control the mass spectrometer: Bruker Trap Control 7.0 Software to evaluate the data: Bruker Data Analysis 4.0.

A further series addresses T2, mARC2 (Homo sapiens, UniProt Q969Z3).
T2 sequence (Q969Z3 36-335): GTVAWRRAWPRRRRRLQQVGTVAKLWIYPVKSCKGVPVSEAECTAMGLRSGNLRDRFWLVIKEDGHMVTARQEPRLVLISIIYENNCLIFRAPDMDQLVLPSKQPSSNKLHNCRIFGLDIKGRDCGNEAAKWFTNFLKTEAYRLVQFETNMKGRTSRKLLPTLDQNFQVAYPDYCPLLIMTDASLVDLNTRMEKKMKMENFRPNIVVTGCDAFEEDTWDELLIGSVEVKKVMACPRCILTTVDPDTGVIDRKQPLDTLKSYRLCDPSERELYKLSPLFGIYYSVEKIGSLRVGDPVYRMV
The description is as above. It is filed as in vitro ADME. The conditions noted are these: for conversion to reduced amidine 1 (LC-MS): mARC2 incubation. Here is the method:
as §1, §2, §3, §4

A short description of series [1]: Log D and log P by shake-flask method. It is filed as physicochemical. The note with it: n-octanol/aqueous buffer. The text has this: The herein presented amidoxime 2 was designed as prodrug of the amidine 1 to improve membrane permeability and oral bioavailability. In this context, the deepening of the physicochemical properties is essential to obtain a favorable pharmacological profile. Therefore, we investigated the lipophilicity, the passive permeation through the human GI tract through the PAMPA assays, and the chemical and enzymatic stabilities in simulated GI fluids and plasma. […] In this study, the lipophilicity of our compounds was determined by means of the “shake‐flask method” and compared to the corresponding values calculated by the software. ^[43] However, for ionizable compounds, the distribution coefficient (log D) should be used instead of log P in the pH range where ionic species exist. ^[44] In this study, log P and log D were calculated (Table 1).
The column was a Waters Symmetry RP‐C18 column (4.6×150 mm, 5 μm). The mobile phase was a mixture of TFA 0.01 M/ACN/(MeOH/THF 90 : 10) 20/52/28 and the flow rate was 0.7 mL/min. The UV detector was set at a length of 254 nm.
Both n‐octanol and aqueous buffer (pH 1.4, 6.5 and 9.4) solutions were saturated of each other. 2 mg of tested compound was dissolved in 500 μL of organic phase and mixed with an equal volume of aqueous buffer by repeated inversions of up to 200 times for 5 min and then allowed to stand for 30 min for the phases to fully separate. Thereafter, the respective phases were analyzed by HPLC.

A further series is described as follows: PAMPA-BBB assay. The arrangement: Papp at 18 h: dose or concentration left out as unconfirmed. The conditions noted are these: porcine polar brain lipid, 18 h. Here is the method: The relative passive transcellular diffusion of compounds, expressed as permeability coefficient (Pe), was determined with a permeability equation. ^[45] The permeabilities of 1, 2, and 1400 W were determined at pH 5.0, 6.5, and 7.4 to mimic the physiological conditions of the GI tract (Table 1). […] As the new prodrug was designed for the potential treatment of neurodegenerative diseases, an important parameter is its capability to cross the BBB.
PAMPA‐BBB assays were performed following the same procedure described above for PAMPA‐GI. Briefly, an artificial membrane consisting in a porcine polar brain lipid extract mixture (purchased from Avantis Polar Lipids, Alabaster, AL, USA) and an incubation time of 18 h were adopted as experimental conditions.

With `C/C(=N\O)NC(c1ccccc1)c1ccccc1` [Compound 2, (1E)‐N‐(diphenylmethyl)‐N′‐hydroxyethanimidamide], the “conversion to reduced amidine 1 (LC-MS)” value at mARC1 is listed as “could be found”; on mARC1 (listed as amidoxime) it was “completely converted”; on mARC2 it was “could be found”; on mARC2 (listed as amidoxime), “completely converted”. Also, the “turnover rate (NADH consumption) compared with BAO” value on mARC1 (mARC1 with B5 and B5R, substrate 3 mM, pH 6.0, 37 °C) was “clearly identical”; at mARC2 (mARC2 with B5 and B5R, substrate 3 mM, pH 6.0, 37 °C), “very similar”. In addition, the logD is -0.16 in series [1] (pH 1.4, n-octanol/aqueous buffer pH 1.4, mean ± SD of three, read-out: log D 1.4); -0.16 to 0.39 in series [1] (pH 1.4, pH 1.4 to 9.4, range stated in text, read-out: log D values over the pH values tested); 0.29 in series [1] (pH 6.5, n-octanol/aqueous buffer pH 6.5, mean ± SD of three, read-out: log D 6.5); 0.39 in series [1] (pH 9.4, n-octanol/aqueous buffer pH 9.4, mean ± SD of three, read-out: log D 9.4). Also, the log partition coefficient (logP) (usually a log measure of how a compound divides between an organic and an aqueous phase) in series [1] (shake-flask, as free amine, mean ± SD of three) stood at 3.24. For the same compound, the Papp (in general, the rate of passage across a membrane or cell layer, normalised by area and donor concentration) at 18 h in “PAMPA-BBB assay” (pig, PAMPA, PAMPA-BBB permeability Pe) is greater than 4 ×10⁻⁶ cm/s. Also, in “PAMPA-BBB assay”, the PAMPA-BBB permeation class entry is on record as “CNS+ (CNS+ (indicative of high BBB permeation): Pe >4.0)”.
